Assay results reported in patent publication US20050079151A1, “Therapeutic agents for apoptosis-related diseases” (priority 1998, published 2005).
Like-named read-outs stand apart in the source and are kept apart here.

B1: mouse MK: mouse MK (JP-A No. Hei 8-196293) (protein, UniProt P12025 23-140, looked up)
Midkine: KKKEKVKKGSECSEWTWGPCTPSSKDCGMGFREGTCGAQTQRVHCKVPCNWKKEFGADCKYKFESWGACDGSTGTKARQGTLKKARYNAQCQETIRVTKPCTSKTKSKTKAKKGKGKD

Columns and labels:
hippocampal neurocytes = details: cited from earlier work
Bcl-2 = assay: Effect for enhancing Bcl-2 expression (Western blotting); assay type: cell-based; details: G401 cells, MK 100 ng/ml, no cisplatin
Description: The effect of MK on the expression of the Bcl-2 gene was examined. Six groups were prepared; the untreated group, the cisplatin (100 μM) treated group, the human MK (100 ng/ml) treated group, the human MK (100 ng/ml)+cisplatin (100 μM) group, the mouse MK (100 ng/ml) treated group, and the mouse MK (100 ng/ml)+cisplatin (100 μM) treated group.
G401 cells were seeded on a 3.5 cm-dish and cultured in 10% FBS/DMEM until the cells became almost confluent. The cells were washed twice and cultured in 0.1% FBS/DMEM overnight. Then, human MK or mouse MK (JP-A No. Hei 8-196293) was added to the MK treatment groups at 100 ng/ml and cultured for six hours. Cisplatin was added to the cisplatin treatment group to 100 μM, and cultured for 2 hours. After culturing, the cells were washed with 0.1% FBS/DMEM three times, cultured in 0.1% FBS/DMEM for 10 hours, and washed with PBS three times.
Two hundred microliters of buffer [1% Triton X-100, 150 mM NaCl, 10 mM Tris (pH 7.4), 1.0 mM EGTA, 0.5% NP-40, 1 mM PMSF, 0.1 μg/ml apiotinin, 40 nM Iewpeptin] were added to each dish and kept on ice for 20 min. The cells in each dish were detached by a scraper, and mixed 8 to 10 times using a syringe with a 26-gauge needle. The cells of each dish were centrifuged in a centrifuge tube at 4° C. at 12000 rpm for 30 min. The precipitated proteins were quantified (BCA Kit; PIERCE). The precipitate prepared from each dish (50 μg) was analyzed by Western blotting using anti-Bcl-2 monoclonal antibody (500×) (Dako; Denmark) and anti-mouse HRP antibody (Jackson Immuno Research) (FIG. 6). The band in each lane is numerically shown (FIG. 7).

Molecule | rescuing hippocampal neurocytes from delayed neuronal death (hippocampal neurocytes; 28 days after the injury (Ishimura et al. 1998)) | dosage required for protection from delayed neuronal death (hippocampal neurocytes; intraventricular injection (Shigeno et al. 1991)) [µg] | rescuing hippocampal neurocytes from delayed neuronal death (hippocampal neurocytes; seven days after development of the ischemic injury (Ishimura et al. 1998)) | expression of Bcl-2 (Bcl-2)
NGF: neurotrophic factor reported in the literature to ameliorate delayed neuronal death | not effective | 10 | effective | –
B1 | – | – | – | enhanced the expression of Bcl-2
